How the values were obtained:
common chickweed (STEME) [1] = assay: Test 21 growth chamber, postemergence; assay type: in vivo, Stellaria media; conditions: 19 DAA
Protocol: (§1) A test was conducted to evaluate the effects on winter barley (HORVW, Hordeum vulgare L.), winter wheat (TRZAW, Triticum aestivum L.), and several weed species, of mixtures of Compound 2 with the commercial herbicide (2,4-dichlorophenoxy)acetic acid (2,4-D), an auxin mimic. […] Plants were treated postemergence at the 2-4 leaf growth stage, and each treatment was replicated one time. […] Plants were watered as needed. […] Results are from single replicates.

wild buckwheat (POLCO) = assay: Test 22 growth chamber, postemergence; assay type: in vivo, Polygonum convolvulus; conditions: 25 DAA
Protocol: as §1, with “species” for “species,”, “herbicides” for “herbicide”, “(2,4-D) and (4-chloro-2-methylphenoxy)acetic acid (MCPA),” for “(2,4-D), an”, “mimics.” for “mimic.”, “stage, except KCHSC, SASKR” for “stage,”, “STEME which were in the 4-8 leaf growth stage. Each” for “each”

common chickweed (STEME) [2] = assay: Test 3 field trial, emerged weeds before corn planting; assay type: in vivo, Stellaria media; conditions: Cpd 2 100, glyphosate 1540, paraquat 1150 g a.i./ha, alone or combined
From the text: (§2) Corn seeds (hybrid ‘Pioneer 33J56’) were planted in early spring season, 3.8 cm deep in a silt loam soil having 2.4% organic matter and a pH of 6. Plots were 6.1 m long by 2.7 m wide with rows spaced 91.4 cm apart. The field was managed using no-till practices. […] Compound 2 and paraquat treatments, alone and in combination, also included a surfactant. Glyphosate, alone and with Compound 2, included ammonium sulfate in the treatment mixture. […] The effects on the weeds in the treated plots and untreated control plots were recorded 30, 42, 46 and 68 days after application. Most of the weed species could not be evaluated at every timing. Corn response was not evaluated because the growth was highly variable depending on the efficacy of the weed control treatments. […] Results are the means of the three replicates.

winter barley (HORVW) = assay: Test 20 growth chamber, postemergence; assay type: in vivo, Hordeum vulgare; conditions: 25 DAA
Protocol: A test was conducted to evaluate the effects on winter barley (HORVW, Hordeum vulgare L.) and winter wheat (TRZAW, Triticum aestivum L.) of mixtures of Compound 2 with the commercial herbicides (2,4-dichlorophenoxy)acetic acid (2,4-D) and (4-chloro-2-methylphenoxy)acetic acid (MCPA), auxin mimics. […] Plants were treated postemergence at the 2-leaf growth stage, and each treatment was replicated a total of four times (three times in the loam/sand blend and one time in RediEarth). […] Plants were watered as needed. […] Results are the means of the four replicates.

red deadnettle (LAMPU) = assay: Test 3 field trial, emerged weeds before corn planting; assay type: in vivo, Lamium purpureum; conditions: Cpd 2 100, glyphosate 1540, paraquat 1150 g a.i./ha, alone or combined
From the text: as §2

Russian thistle (SASKR) = assay: Test 22 growth chamber, postemergence; assay type: in vivo, Salsola kali; conditions: 25 DAA
Protocol: as §1, with “species” for “species,”, “herbicides” for “herbicide”, “(2,4-D) and (4-chloro-2-methylphenoxy)acetic acid (MCPA),” for “(2,4-D), an”, “mimics.” for “mimic.”, “stage, except KCHSC, SASKR” for “stage,”, “STEME which were in the 4-8 leaf growth stage. Each” for “each”

jimsonweed (DATST) = assay: Test 14 field trial, preemergence, growth as percent of control; assay type: in vivo, Datura stramonium
From the text: Corn seeds (hybrid ‘Pioneer 31G96 RR’) were planted in mid spring season, 3.8 cm deep in a clay loam soil having 2% organic matter and a pH of 6.6. Plots were 6.1 m long by 3.0 m wide with rows spaced 76 cm apart. Seeds were spaced 15 cm apart within the rows. The field was managed using conventional tillage practices. […] Yellow nutsedge was only evaluated 19 and 28 days after application, and ivyleaf morningglory could only be evaluated 28 days after application. […] Results are the means of the three replicates. This growth inhibition data was converted to results in the form of “plant growth as a percent of control plant growth” using the calculation “100 minus growth inhibition”. […] For “growth as a percent of control” data, Colby's Equation calculates the expected additive effect of herbicidal mixtures having two active ingredients as follows:
Ga+b=GaGb/100 • wherein Ga+b is the growth as a percent of control of plants treated with the mixture expected from additive contribution of the individual components, • Ga is the observed growth as a percent of control of plants treated with the first active ingredient at the same use rate as in the mixture, and • Gb is the observed growth as a percent of control of plants treated with the second active ingredient at the same use rate as in the mixture. For mixtures having three active ingredients, Colby's Equation to calculate the expected additive effect of herbicidal mixtures is as follows:
Ga+b+c=GaGbGc/10,000 • wherein Ga and Gb are as defined above and • Ga+b+c is the growth as a percent of control of plants treated with the mixture expected from additive contribution of the individual components, and • Gc is the observed growth as a percent of control of plants treated with the third active ingredient at the same use rate as in the mixture. When these two forms of Colby's Equation are used, if the observed effects on weeds are less than the expected values, the mixture is synergistic.

field violet (VIOAR) = assay: Test 21 growth chamber, postemergence; assay type: in vivo, Viola arvensis; conditions: 19 DAA
Protocol: as §1

shepherd's purse (CAPBP) = assay: Test 9 field trial, emerged weeds before corn planting; assay type: in vivo, Capsella bursa-pastoris; conditions: g a.i./ha: Cpd 2 100, Glyphosate 1540, Paraquat 1150
Protocol: Corn seeds (hybrid ‘Pioneer 34M91 RR’) were planted in mid spring season, about 3.8 cm deep in a silty clay loam soil having a pH of 6.7. Plots were 9.1 m long by 3.0 m. The field was managed using no-till practices. […] Compound 2 and paraquat treatments, alone and in combination, also included a surfactant. Glyphosate, alone and with Compound 2, included ammonium sulfate in the treatment mixture. […] The effects on the weeds in the treated plots and untreated control plots were recorded 7, 14, 23, 30 and 57 days after application. Most of the weed species could not be evaluated at every timing. Corn response was only evaluated 57 days after application. […] Results are the means of the three replicates.

[3] = 2,4-D or MCPA alone 250 g a.i./ha

COC(=O)c1nc(C2CC2)nc(N)c1Cl [Compound 2, methyl 6-amino-5-chloro-2-cyclopropyl-4-pyrimidinecarboxylate]
Postemergence STEME Obs (common chickweed (STEME) [1]; Cpd 2 alone 16 g a.i./ha): 65 | Postemergence POLCO Obs (wild buckwheat (POLCO); Cpd 2 alone 4 g a.i./ha): 55 | Postemergence POLCO Obs (wild buckwheat (POLCO); Cpd 2 alone 8 g a.i./ha): 60 | Postemergence POLCO Obs (wild buckwheat (POLCO); Cpd 2 alone 16 g a.i./ha): 60 | STEME Obs (common chickweed (STEME) [2]; 30 DAA): 62% | STEME Obs (common chickweed (STEME) [2]; 42 DAA): 37% | STEME Obs (common chickweed (STEME) [2]; 46 DAA): 30% | Postemergence HORVW Obs (winter barley (HORVW); Cpd 2 alone 4 g a.i./ha): 26 | Postemergence HORVW Obs (winter barley (HORVW); Cpd 2 alone 8 g a.i./ha): 33 | Postemergence HORVW Obs (winter barley (HORVW); Cpd 2 alone 16 g a.i./ha): 44 | LAMPU Obs (red deadnettle (LAMPU); 30 DAA): 87% | LAMPU Obs (red deadnettle (LAMPU); 42 DAA): 35% | LAMPU Obs (red deadnettle (LAMPU); 46 DAA): 100% | Postemergence SASKR Obs (Russian thistle (SASKR); Cpd 2 alone 4 g a.i./ha): 50 | Postemergence SASKR Obs (Russian thistle (SASKR); Cpd 2 alone 8 g a.i./ha): 50 | Postemergence SASKR Obs (Russian thistle (SASKR); Cpd 2 alone 16 g a.i./ha): 55 | Obs growth % of control (jimsonweed (DATST); 19 DAA, 75 g a.i./ha): 93% | Obs growth % of control (jimsonweed (DATST); 19 DAA, 100 g a.i./ha): 73% | Obs growth % of control (jimsonweed (DATST); 28 DAA, 75 g a.i./ha): 32% | Obs growth % of control (jimsonweed (DATST); 28 DAA, 100 g a.i./ha): 30% | Obs growth % of control (jimsonweed (DATST); 56 DAA, 75 g a.i./ha): 0% | Obs growth % of control (jimsonweed (DATST); 56 DAA, 100 g a.i./ha): 5% | Postemergence VIOAR Obs (field violet (VIOAR); Cpd 2 alone 16 g a.i./ha): 60 | CAPBP Obs (shepherd's purse (CAPBP); 7 DAA): 23% | CAPBP Obs (shepherd's purse (CAPBP); 14 DAA): 17% | CAPBP Obs (shepherd's purse (CAPBP); 23 DAA): 7% | CAPBP Obs (shepherd's purse (CAPBP); 30 DAA): 0% | CAPBP Obs (shepherd's purse (CAPBP); 57 DAA): 0%

O=C(O)CNCP(=O)(O)O [Glyphosate]
STEME Obs (common chickweed (STEME) [2]; 30 DAA): 100% | STEME Obs (common chickweed (STEME) [2]; 42 DAA): 88% | STEME Obs (common chickweed (STEME) [2]; 46 DAA): 100% | LAMPU Obs (red deadnettle (LAMPU); 30 DAA): 70% | LAMPU Obs (red deadnettle (LAMPU); 42 DAA): 52% | LAMPU Obs (red deadnettle (LAMPU); 46 DAA): 97% | CAPBP Obs (shepherd's purse (CAPBP); 7 DAA): 52% | CAPBP Obs (shepherd's purse (CAPBP); 14 DAA): 73% | CAPBP Obs (shepherd's purse (CAPBP); 23 DAA): 88% | CAPBP Obs (shepherd's purse (CAPBP); 30 DAA): 98% | CAPBP Obs (shepherd's purse (CAPBP); 57 DAA): 100%

O=C(O)COc1ccc(Cl)cc1Cl [2,4-D, (2,4-dichlorophenoxy)acetic acid]
Postemergence STEME Obs (common chickweed (STEME) [1]; 2,4-D alone 125 g a.i./ha): 50 | Postemergence STEME Obs (common chickweed (STEME) [1]; 2,4-D alone 250 g a.i./ha): 50 | Postemergence POLCO Obs (wild buckwheat (POLCO); [3]): 45 | Postemergence HORVW Obs (winter barley (HORVW); [3]): 26 | Postemergence SASKR Obs (Russian thistle (SASKR); [3]): 60 | Postemergence VIOAR Obs (field violet (VIOAR); 2,4-D alone 125 g a.i./ha): 0 | Postemergence VIOAR Obs (field violet (VIOAR); 2,4-D alone 250 g a.i./ha): 20

CCc1cccc(C)c1N(C(=O)CCl)[C@@H](C)COC [S-Metolachlor, S-metolachlor, reference compound]
Obs growth % of control (jimsonweed (DATST); 19 DAA, 1870 g a.i./ha): 100% | Obs growth % of control (jimsonweed (DATST); 28 DAA, 1870 g a.i./ha): 22% | Obs growth % of control (jimsonweed (DATST); 56 DAA, 1870 g a.i./ha): 30%
